Source: ChEMBL document CHEMBL1136790, “Identification of 1-arylmethyl-3- (2-aminoethyl)-5-aryluracil as novel gonadotropin-releasing hormone receptor antagonists” (J Med Chem, 2003)

Columns and labels:
[1] = target: T1, Gonadotropin-releasing hormone receptor (Homo sapiens, UniProt P30968); assay: Binding affinity was determined towards human gonadotropin-releasing hormone receptor
T1 sequence (P30968 whole entry): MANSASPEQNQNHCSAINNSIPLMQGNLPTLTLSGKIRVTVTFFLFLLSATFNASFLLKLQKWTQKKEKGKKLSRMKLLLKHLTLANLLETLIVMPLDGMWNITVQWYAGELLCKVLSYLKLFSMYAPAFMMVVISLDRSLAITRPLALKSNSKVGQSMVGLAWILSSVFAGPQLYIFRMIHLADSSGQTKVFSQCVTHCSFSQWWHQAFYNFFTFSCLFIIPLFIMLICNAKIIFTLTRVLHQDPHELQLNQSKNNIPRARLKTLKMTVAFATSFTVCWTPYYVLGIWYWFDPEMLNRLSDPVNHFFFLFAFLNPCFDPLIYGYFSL

[2] = target: T1, Gonadotropin-releasing hormone receptor; assay: Binding affinity was determined towards human Gonadotropin-releasing hormone receptor

| SMILES | Ki [1] [µM] | Ki [2] [µM] |
| --- | --- | --- |
| Cc1c(-c2ccccc2)c(=O)n(CCN(C)CCc2ccccn2)c(=O)n1Cc1c(F)cccc1F | 0.4 | – |
| Cc1c(-c2ccc3c(c2)OCCO3)c(=O)n(CCN(C)CCc2ccccn2)c(=O)n1Cc1c(F)cccc1F | 0.024 | – |
| Cc1c(-c2ccc3c(c2)OCO3)c(=O)n(CCN(C)CCc2ccccn2)c(=O)n1Cc1c(F)cccc1F | 0.038 | – |
| COc1ccc(-c2c(C)n(Cc3c(F)cccc3F)c(=O)n(CCN(C)CCc3ccccn3)c2=O)cc1 | 0.23 | – |
| COc1cccc(-c2cn(Cc3c(F)cccc3F)c(=O)n(CCN(C)CCc3ccccn3)c2=O)c1 | 1.7 | – |
| COc1cccc(-c2c(C)n(Cc3c(F)cccc3F)c(=O)n(CCN3CCC[C@H]3Cc3ccccn3)c2=O)c1 | 0.13 | – |
| COc1cccc(-c2c(C)n(Cc3c(F)cccc3F)c(=O)n(CCN3CCCC3c3ccccn3)c2=O)c1 (stereo unspecified) | 0.53 | – |
| CCc1c(-c2cccc(OC)c2)c(=O)n(CCN(C)CCc2ccccn2)c(=O)n1Cc1c(F)cccc1F | 2.2 | – |
| CCc1cccc(-c2c(C)n(Cc3c(F)cccc3F)c(=O)n(CCN(C)CCc3ccccn3)c2=O)c1 | 0.22 | – |
| Cc1c(-c2ccc(Oc3ccccc3)cc2)c(=O)n(CCN(C)CCc2ccccn2)c(=O)n1Cc1c(F)cccc1F | 0.03 | – |
| Cc1c(-c2cccc(O)c2)c(=O)n(CCN(C)CCc2ccccn2)c(=O)n1Cc1c(F)cccc1F | 0.48 | – |
| COc1cccc(-c2c(C)n(Cc3c(F)cccc3F)c(=O)n(CCNCCc3c[nH]cn3)c2=O)c1 | 3.8 | – |
| COc1cccc(-c2c(C)n(Cc3c(F)cccc3F)c(=O)n(CCN3CCC[C@@H]3Cc3ccccn3)c2=O)c1 | 4.8 | – |
| COc1cccc(-c2c(C)n(Cc3c(F)cccc3F)c(=O)n(CCNCCc3ccccc3)c2=O)c1 | 1.1 | – |
| Cc1c(-c2cccc(OC(F)(F)F)c2)c(=O)n(CCN(C)CCc2ccccn2)c(=O)n1Cc1c(F)cccc1F | 4.8 | – |
| COc1cccc(-c2c(C)n(Cc3c(F)cccc3F)c(=O)n(CCNCc3ccccc3)c2=O)c1 | – | 0.24 |
